Reference: BindingDB's records for doi:10.1021/jm058276a (Duquesne University, 2006)

Each molecule was assayed against T1, Dihydrofolate reductase (Homo sapiens, UniProt P00374) (assay: Dihydrofolate Reductase (DHFR) Assay). Conditions: pH 7.4; 30 °C.
T1 sequence (P00374 whole entry): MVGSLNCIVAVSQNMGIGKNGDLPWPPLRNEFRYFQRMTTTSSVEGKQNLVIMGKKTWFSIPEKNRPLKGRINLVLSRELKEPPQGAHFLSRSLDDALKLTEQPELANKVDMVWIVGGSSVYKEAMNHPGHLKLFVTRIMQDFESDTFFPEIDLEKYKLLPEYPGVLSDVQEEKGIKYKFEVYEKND
Procedure: DHFRs were assayed spectrophotometrically in the reaction buffer solution containing dihydrofolate. The reaction was initiated with an amount of enzyme yielding a change in optical density at 340 nm of 0.015/min.

| SMILES | IC50 [µM] |
| --- | --- |
| CCc1[nH]c2nc(N)nc(O)c2c1Sc1ccc(F)cc1 [2-amino-6-ethyl-5-[(4-fluorophenyl)sulfanyl]-3H,4H,7H-pyrrolo[2,3-d]pyrimidin-4-one] | > 32 |
| CCc1[nH]c2nc(N)nc(O)c2c1Sc1ccc([N+](=O)[O-])cc1 [2-amino-6-ethyl-5-[(4-nitrophenyl)sulfanyl]-3H,4H,7H-pyrrolo[2,3-d]pyrimidin-4-one] | > 29 |
| CCc1[nH]c2nc(N)[nH]c(=O)c2c1Sc1cc(C(F)(F)F)cc(C(F)(F)F)c1 [2-amino-5-{[3,5-bis(trifluoromethyl)phenyl]sulfanyl}-6-ethyl-3H,4H,7H-pyrrolo[2,3-d]pyrimidin-4-one] | > 24 |
| CCc1[nH]c2nc(N)[nH]c(=O)c2c1Sc1c(C)cccc1C [2-amino-5-[(2,6-dimethylphenyl)sulfanyl]-6-ethyl-3H,4H,7H-pyrrolo[2,3-d]pyrimidin-4-one] | > 31 |
| CCc1[nH]c2nc(N)[nH]c(=O)c2c1Sc1ccc(Cl)c(Cl)c1 [2-amino-5-[(3,4-dichlorophenyl)sulfanyl]-6-ethyl-3H,4H,7H-pyrrolo[2,3-d]pyrimidin-4-one] | > 27 |

Further lines, results first:

| IC50 [µM] | SMILES |
| --- | --- |
| > 27 | CCc1[nH]c2nc(N)nc(O)c2c1Sc1cccc(Br)c1 [2-amino-5-[(3-bromophenyl)sulfanyl]-6-ethyl-3H,4H,7H-pyrrolo[2,3-d]pyrimidin-4-one] |
| > 31 | CCc1[nH]c2nc(N)nc(O)c2c1Sc1cccc(Cl)c1 [2-amino-5-[(3-chlorophenyl)sulfanyl]-6-ethyl-3H,4H,7H-pyrrolo[2,3-d]pyrimidin-4-one] |
| > 26 | CCc1[nH]c2nc(N)nc(O)c2c1Sc1ccc(Br)cc1 [2-amino-5-[(4-bromophenyl)sulfanyl]-6-ethyl-3H,4H,7H-pyrrolo[2,3-d]pyrimidin-4-one] |
